“And” between values parts separate entries of the source, which are not always exact repeats. Equal entries are not always repeated.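 48-hour exposure; five concentrations; linearly interpolated endpoints. GI50 marks 50% less growth. TGI is the concentration that stops growth completely.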
Key:
Assay in all cases: NCI-60 cell line screen, 48 h
LOX IMVI melanoma = tested on: LOX IMVI melanoma
OVCAR-4 ovarian = tested on: OVCAR-4 ovarian
786-0 renal = tested on: 786-0 renal
K-562 leukemia = tested on: K-562 leukemia
HOP-92 NSCLC = tested on: HOP-92 NSCLC
RXF 393 renal = tested on: RXF 393 renal
SF-539 CNS = tested on: SF-539 CNS
SF-295 CNS = tested on: SF-295 CNS
HOP-62 NSCLC = tested on: HOP-62 NSCLC
NCI/ADR-RES ovarian = tested on: NCI/ADR-RES ovarian

## Nc1ccc(-c2cc(C(=O)Nc3nccs3)[nH]c(=S)n2)cc1
LOX IMVI melanoma
  TGI: > 100 µM
OVCAR-4 ovarian
  TGI: > 100 µM
786-0 renal
  TGI: > 100 µM
K-562 leukemia
  TGI: > 100 µM
HOP-92 NSCLC
  TGI: > 100 µM
RXF 393 renal
  TGI: > 100 µM
SF-539 CNS
  TGI: > 100 µM

## O=C1C(=C2CCCC2)CCC1CN1CCCCC1 (stereo not drawn)
OVCAR-4 ovarian
  TGI: 30.3 µM
786-0 renal
  TGI: 26.4 µM
K-562 leukemia
  TGI: 47.1 µM
HOP-92 NSCLC
  TGI: 37.7 µM
SF-295 CNS
  TGI: > 100 µM
RXF 393 renal
  TGI: 30 µM
SF-539 CNS
  TGI: 50.1 µM

## CCC/C=C\C=C\C1(NS(=O)(=O)c2ccc(C)cc2)CCC(C(C)(C)C)CC1 (stereo not drawn)
HOP-62 NSCLC
  TGI: 56.7 µM
OVCAR-4 ovarian
  TGI: 49.4 µM
786-0 renal
  TGI: 29.9 µM
K-562 leukemia
  TGI: 34.2 µM
HOP-92 NSCLC
  TGI: 50.9 µM
SF-295 CNS
  TGI: 51.2 µM
RXF 393 renal
  TGI: 32.3 µM
SF-539 CNS
  TGI: > 100 µM

## Cc1ccc(S(=O)(=O)NC(=O)NCCc2ccccc2)cc1
LOX IMVI melanoma
  TGI: > 100 µM
HOP-62 NSCLC
  TGI: > 100 µM
OVCAR-4 ovarian
  TGI: > 100 µM
786-0 renal
  TGI: > 100 µM
K-562 leukemia
  TGI: > 100 µM
HOP-92 NSCLC
  TGI: > 100 µM
SF-295 CNS
  TGI: > 100 µM
RXF 393 renal
  TGI: > 100 µM
SF-539 CNS
  TGI: > 100 µM

## NCCCOc1cc2ccccc2cc1C(=O)Nc1ccc(Cl)cc1OC(=O)c1cc2ccccc2cc1OCCCN
LOX IMVI melanoma
  GI50: 0.162 µM
  TGI: 0.316 µM
HOP-62 NSCLC
  GI50: 0.208 µM
  TGI: 0.515 µM
NCI/ADR-RES ovarian
  GI50: 1.17 µM
  TGI: 2.79 µM
OVCAR-4 ovarian
  GI50: 0.146 µM
  TGI: 0.306 µM
786-0 renal
  GI50: 0.172 µM
  TGI: 0.327 µM
HOP-92 NSCLC
  GI50: 1.64 µM
  TGI: 3.71 µM
SF-295 CNS
  GI50: 0.516 µM
  TGI: 1.44 µM
RXF 393 renal
  GI50: 0.61 µM
  TGI: 1.69 µM
SF-539 CNS
  GI50: 0.345 µM
  TGI: 0.9 µM

## CCOC(=O)C(=O)Nc1cc(Cl)c(Cl)cc1Cl
LOX IMVI melanoma
  TGI: > 100 µM
HOP-62 NSCLC
  TGI: > 100 µM
OVCAR-4 ovarian
  TGI: > 100 µM
786-0 renal
  TGI: > 100 µM
K-562 leukemia
  TGI: > 100 µM
HOP-92 NSCLC
  TGI: > 100 µM
SF-295 CNS
  TGI: > 100 µM
RXF 393 renal
  TGI: > 100 µM
SF-539 CNS
  TGI: > 100 µM

## O=[P+](O)c1ccccn1
LOX IMVI melanoma
  TGI: > 100 µM
HOP-62 NSCLC
  TGI: > 100 µM
OVCAR-4 ovarian
  TGI: > 100 µM
786-0 renal
  TGI: > 100 µM
K-562 leukemia
  TGI: > 100 µM
HOP-92 NSCLC
  TGI: > 100 µM
SF-295 CNS
  TGI: > 100 µM
RXF 393 renal
  TGI: > 100 µM
SF-539 CNS
  TGI: > 100 µM

## CCCCCCCCCCCCCCCCCCNCc1ccc(Cl)cc1
LOX IMVI melanoma
  GI50: 2.04 µM
  TGI: 4.92 µM
HOP-62 NSCLC
  GI50: 3.17 µM
  TGI: 12.8 µM
NCI/ADR-RES ovarian
  GI50: 3.58 µM
  TGI: 18.2 µM
OVCAR-4 ovarian
  GI50: 1.99 µM
  TGI: 4.76 µM
786-0 renal
  GI50: 8.61 µM
  TGI: 25.1 µM
HOP-92 NSCLC
  GI50: 1.83 µM
  TGI: 5.45 µM
SF-295 CNS
  GI50: 12.6 µM
  TGI: 28.8 µM
RXF 393 renal
  GI50: 3.39 µM
  TGI: 15.8 µM
SF-539 CNS
  GI50: 12.1 µM
  TGI: 29.4 µM

## S=c1o[nH]c(-c2ccccc2)c1C=Nc1ccccc1
LOX IMVI melanoma
  TGI: > 100 µM
OVCAR-4 ovarian
  TGI: > 100 µM
786-0 renal
  TGI: > 100 µM
K-562 leukemia
  TGI: > 100 µM
SF-295 CNS
  TGI: > 100 µM
RXF 393 renal
  TGI: > 100 µM
SF-539 CNS
  TGI: > 100 µM

## Cc1ccccc1NC(=O)/C=N/O
LOX IMVI melanoma
  TGI: > 100 µM
HOP-62 NSCLC
  TGI: > 100 µM
OVCAR-4 ovarian
  TGI: > 100 µM
786-0 renal
  TGI: > 100 µM
K-562 leukemia
  TGI: > 100 µM
SF-295 CNS
  TGI: > 100 µM
RXF 393 renal
  TGI: > 100 µM

## CN(C)CCC(/C=C/c1ccccc1)=N\Nc1ccc(Cl)c(Cl)c1
LOX IMVI melanoma
  TGI: 3.71 µM
HOP-62 NSCLC
  TGI: 13.3 µM
OVCAR-4 ovarian
  TGI: 10.8 µM
786-0 renal
  TGI: 9.26 µM
K-562 leukemia
  TGI: 6.03 µM
HOP-92 NSCLC
  TGI: 4.4 µM
SF-295 CNS
  TGI: 11.2 µM
RXF 393 renal
  TGI: 9.05 µM
SF-539 CNS
  TGI: 4.17 µM

## COC(=O)CCC(=O)N1C/C(=C\c2ccccc2)C(=O)/C(=C/c2ccccc2)C1
LOX IMVI melanoma
  TGI: 1.59 µM
HOP-62 NSCLC
  TGI: 28.7 µM
OVCAR-4 ovarian
  TGI: 4.92 µM
786-0 renal
  TGI: 3.75 µM
K-562 leukemia
  TGI: > 100 µM
HOP-92 NSCLC
  TGI: 18.7 µM
SF-295 CNS
  TGI: 5.87 µM
RXF 393 renal
  TGI: 3.74 µM
SF-539 CNS
  TGI: 7.53 µM

## Nc1ncnc2c1ncn2C1OC(COS(N)(=O)=O)C(O)C1O (stereo not drawn)
LOX IMVI melanoma
  GI50: 0.018 µM
  TGI: 0.0382 µM
OVCAR-4 ovarian
  GI50: 0.00118 µM
  TGI: 0.00718 µM and 0.0357 µM
786-0 renal
  GI50: 0.00213 µM and 0.0204 µM
  TGI: 0.00465 µM and 0.0433 µM
HOP-92 NSCLC
  TGI: 0.00619 µM and 0.0611 µM

## Cc1coc2c1C(=O)C(=O)c1ccccc1-2
LOX IMVI melanoma
  TGI: 1.05 µM
HOP-62 NSCLC
  TGI: 3 µM
OVCAR-4 ovarian
  TGI: 3.22 µM
786-0 renal
  TGI: 3.24 µM
K-562 leukemia
  TGI: 1.44 µM
HOP-92 NSCLC
  TGI: 1.28 µM
SF-295 CNS
  TGI: 3.03 µM
RXF 393 renal
  TGI: 3.12 µM
SF-539 CNS
  TGI: 2.88 µM

## COc1cc(-n2cc(-c3ccccc3)[nH]c2=O)cc(OC)c1OC
LOX IMVI melanoma
  GI50: > 100 µM
  TGI: > 100 µM
HOP-62 NSCLC
  GI50: 39.1 µM
  TGI: > 100 µM
NCI/ADR-RES ovarian
  GI50: 33 µM
  TGI: > 100 µM
OVCAR-4 ovarian
  GI50: 17.1 µM
  TGI: 52.8 µM
786-0 renal
  GI50: 23.7 µM
  TGI: 91.1 µM
K-562 leukemia
  GI50: 83.9 µM
  TGI: > 100 µM
HOP-92 NSCLC
  GI50: 20.6 µM
  TGI: 83.1 µM
SF-295 CNS
  GI50: 37.8 µM
  TGI: > 100 µM
SF-539 CNS
  GI50: 21.5 µM
  TGI: 63.8 µM

## Nc1c(C(=O)Nc2ccccn2)sc2nc3c(cc12)C(O)CCC3 (stereo not drawn)
LOX IMVI melanoma
  GI50: 3.09 µM
  TGI: > 50 µM
HOP-62 NSCLC
  GI50: 2.9 µM
  TGI: > 50 µM
NCI/ADR-RES ovarian
  GI50: 1.83 µM
  TGI: > 50 µM
OVCAR-4 ovarian
  GI50: > 50 µM
  TGI: > 50 µM
786-0 renal
  GI50: 1.95 µM
  TGI: > 50 µM
K-562 leukemia
  GI50: 0.319 µM
  TGI: > 50 µM
SF-295 CNS
  GI50: 1.74 µM
  TGI: > 50 µM
RXF 393 renal
  GI50: 1.69 µM
  TGI: > 50 µM
SF-539 CNS
  GI50: 1.47 µM
  TGI: > 50 µM

## Cc1cc(-c2nnc(/C=C/c3ccc4c(c3)OCO4)o2)n[nH]1
LOX IMVI melanoma
  GI50: 15.9 µM
  TGI: > 50 µM
HOP-62 NSCLC
  GI50: 17.5 µM
  TGI: > 50 µM
NCI/ADR-RES ovarian
  GI50: 7.33 µM
  TGI: 21.4 µM
OVCAR-4 ovarian
  GI50: 23.7 µM
  TGI: > 50 µM
786-0 renal
  GI50: 16.7 µM
  TGI: > 50 µM
K-562 leukemia
  GI50: 1.83 µM
  TGI: > 50 µM
SF-295 CNS
  GI50: 7.04 µM
  TGI: 38 µM
RXF 393 renal
  GI50: 20.9 µM
  TGI: > 50 µM
SF-539 CNS
  GI50: 12.5 µM
  TGI: > 50 µM

## CCCCCCCCOCC(O)CO (stereo not drawn)
LOX IMVI melanoma
  TGI: > 100 µM
HOP-62 NSCLC
  TGI: > 100 µM
OVCAR-4 ovarian
  TGI: > 100 µM
786-0 renal
  TGI: > 100 µM
K-562 leukemia
  TGI: > 100 µM
HOP-92 NSCLC
  TGI: > 100 µM
SF-295 CNS
  TGI: > 100 µM
RXF 393 renal
  TGI: > 100 µM
SF-539 CNS
  TGI: > 100 µM

## CC(C)(C)OP(=O)(OC(C)(C)C)C(O)c1ccc(/C=C(\C#N)C(N)=O)cc1 (stereo not drawn)
LOX IMVI melanoma
  TGI: > 100 µM
HOP-62 NSCLC
  TGI: > 100 µM
OVCAR-4 ovarian
  TGI: > 100 µM
786-0 renal
  TGI: > 100 µM
K-562 leukemia
  TGI: > 100 µM
HOP-92 NSCLC
  TGI: > 100 µM
SF-295 CNS
  TGI: > 100 µM
RXF 393 renal
  TGI: > 100 µM
SF-539 CNS
  TGI: > 100 µM

## C/C(=N\NC(N)=S)c1ccc(C)c(C)c1
LOX IMVI melanoma
  TGI: > 100 µM
HOP-62 NSCLC
  TGI: > 100 µM
OVCAR-4 ovarian
  TGI: > 100 µM
786-0 renal
  TGI: > 100 µM
K-562 leukemia
  TGI: > 100 µM
HOP-92 NSCLC
  TGI: > 100 µM
SF-295 CNS
  TGI: > 100 µM
RXF 393 renal
  TGI: 86.4 µM
SF-539 CNS
  TGI: > 100 µM

## CC[C@@]1(OC(=O)C(N)CCCCN)C(=O)OCc2c1cc1n(c2=O)Cc2cc3ccccc3nc2-1 (stereo partly drawn)
LOX IMVI melanoma
  TGI: 0.18 µM
HOP-62 NSCLC
  TGI: 0.0667 µM
OVCAR-4 ovarian
  TGI: 2.84 µM
786-0 renal
  TGI: 0.163 µM
K-562 leukemia
  TGI: > 33.1 µM
HOP-92 NSCLC
  TGI: 1.72 µM
SF-295 CNS
  TGI: 0.813 µM
RXF 393 renal
  TGI: 0.861 µM
SF-539 CNS
  TGI: 0.149 µM

From PubChem BioAssay (NCI)
